Species on record: Rattus norvegicus
Assay: DrugMatrix - Regimen: Daily Repeat
Assay type: toxicity, organism-based, Sprague-Dawley
Design: regimen Daily Repeat, gender Male, age 6-8 weeks
Conditions: in vivo, po, route oral GAVAGE, vehicle .5 % CMC; for ABSOLUTE BASOPHIL / ABSOLUTE EOSINOPHIL / ABSOLUTE LYMPHOCYTE / ABSOLUTE MONOCYTE / ABSOLUTE SEGMENTED NEUTROPHIL / BASOPHIL / EOSINOPHIL / ERYTHROCYTE COUNT / HEMATOCRIT / HEMOGLOBIN / LEUKOCYTE COUNT / LYMPHOCYTE / MEAN CORPUSCULAR HEMOGLOBIN / MEAN CORPUSCULAR HEMOGLOBIN CONCENTRATION / MEAN CORPUSCULAR VOLUME / MONOCYTE / NEUTROPHIL / NUCLEATED RED BLOOD CELLS / PLATELET COUNT: tissue Blood; for ALANINE AMINOTRANSFERASE / ALBUMIN / ALKALINE PHOSPHATASE / ASPARTATE AMINOTRANSFERASE / BLOOD UREA NITROGEN / CARBON DIOXIDE / CHLORIDE / CHOLESTEROL / CREATINE PHOSPHOKINASE / CREATININE / GLUCOSE / LACTATE DEHYDROGENASE / LIPASE / PHOSPHORUS / POTASSIUM / SODIUM / TOTAL BILIRUBIN / TOTAL PROTEIN / URIC ACID: tissue Plasma
[1] = 0 mg/kg, 72 h, dose level Control, time 3 day
[2] = 0 mg/kg, 120 h, dose level Control, time 5 day
[3] = 20 mg/kg, 72 h, dose level Low, time 3 day

CC(C)(C)NC(=O)[C@@H]1C[C@@H]2CCCC[C@@H]2CN1C[C@@H](O)[C@H](Cc1ccccc1)NC(=O)[C@H](CC(N)=O)NC(=O)c1ccc2ccccc2n1
ABSOLUTE BASOPHIL [1]: 0 CELLS/uL | ABSOLUTE EOSINOPHIL [1]: 222.83 CELLS/uL | ABSOLUTE LYMPHOCYTE [1]: 14453 CELLS/uL | ABSOLUTE MONOCYTE [1]: 0 CELLS/uL | ABSOLUTE SEGMENTED NEUTROPHIL [1]: 1490.83 CELLS/uL | BASOPHIL [1]: 0% | EOSINOPHIL [1]: 1.33% | ERYTHROCYTE COUNT [1]: 5.76 x10E6/uL | HEMATOCRIT [1]: 36.52% | HEMOGLOBIN [1]: 13.45 G/DL | LEUKOCYTE COUNT [1]: 16.17 x10E3/uL | LYMPHOCYTE [1]: 89.33% | MEAN CORPUSCULAR HEMOGLOBIN [1]: 23.37 pg | MEAN CORPUSCULAR HEMOGLOBIN CONCENTRATION [1]: 36.85 G/DL | MEAN CORPUSCULAR VOLUME [1]: 63.47 fL | MONOCYTE [1]: 0% | NEUTROPHIL [1]: 9.33% | NUCLEATED RED BLOOD CELLS [1]: 0 /100WBC | PLATELET COUNT [1]: 1239.5 x10E3/uL | ALANINE AMINOTRANSFERASE [1]: 43.83 u/L | ALBUMIN [1]: 4.27 G/DL | ALKALINE PHOSPHATASE [1]: 398.83 u/L | ASPARTATE AMINOTRANSFERASE [1]: 81.17 u/L | BLOOD UREA NITROGEN [1]: 17.67 mg/dL | CARBON DIOXIDE [1]: 27.5 mmol/L | CHLORIDE [1]: 99.17 MEQ/L | CHOLESTEROL [1]: 74 mg/dL | CREATINE PHOSPHOKINASE [1]: 331.5 u/L | CREATININE [1]: 0.2 mg/dL | GLUCOSE [1]: 171.33 mg/dL | LACTATE DEHYDROGENASE [1]: 241.67 u/L | LIPASE [1]: 9.5 u/L | PHOSPHORUS [1]: 12.25 mg/dL | POTASSIUM [1]: 6.33 MEQ/L | SODIUM [1]: 141.28 MEQ/L | TOTAL BILIRUBIN [1]: 0.15 mg/dL | TOTAL PROTEIN [1]: 5.98 G/DL | URIC ACID [1]: 1.63 mg/dL | ABSOLUTE BASOPHIL [2]: 0 CELLS/uL | ABSOLUTE EOSINOPHIL [2]: 148.67 CELLS/uL | ABSOLUTE LYMPHOCYTE [2]: 16020.5 CELLS/uL | ABSOLUTE MONOCYTE [2]: 29.17 CELLS/uL | ABSOLUTE SEGMENTED NEUTROPHIL [2]: 1468.33 CELLS/uL | BASOPHIL [2]: 0% | EOSINOPHIL [2]: 1% | ERYTHROCYTE COUNT [2]: 5.78 x10E6/uL | HEMATOCRIT [2]: 35.77% | HEMOGLOBIN [2]: 13.4 G/DL | LEUKOCYTE COUNT [2]: 17.67 x10E3/uL | LYMPHOCYTE [2]: 90.5% | MEAN CORPUSCULAR HEMOGLOBIN [2]: 23.22 pg | MEAN CORPUSCULAR HEMOGLOBIN CONCENTRATION [2]: 37.47 G/DL | MEAN CORPUSCULAR VOLUME [2]: 61.92 fL | MONOCYTE [2]: 0.17% | NEUTROPHIL [2]: 8.33% | NUCLEATED RED BLOOD CELLS [2]: 0.17 /100WBC | PLATELET COUNT [2]: 1255.5 x10E3/uL | ALANINE AMINOTRANSFERASE [2]: 46.5 u/L | ALBUMIN [2]: 4.38 G/DL | ALKALINE PHOSPHATASE [2]: 336 u/L | ASPARTATE AMINOTRANSFERASE [2]: 76.5 u/L | BLOOD UREA NITROGEN [2]: 20 mg/dL | CARBON DIOXIDE [2]: 27.5 mmol/L | CHLORIDE [2]: 101 MEQ/L | CHOLESTEROL [2]: 71.33 mg/dL | CREATINE PHOSPHOKINASE [2]: 231.83 u/L | CREATININE [2]: 0.37 mg/dL | GLUCOSE [2]: 168.83 mg/dL | LACTATE DEHYDROGENASE [2]: 174 u/L | LIPASE [2]: 8.67 u/L | PHOSPHORUS [2]: 11.48 mg/dL | POTASSIUM [2]: 6.82 MEQ/L | SODIUM [2]: 143.8 MEQ/L | TOTAL BILIRUBIN [2]: 0.2 mg/dL | TOTAL PROTEIN [2]: 5.98 G/DL | URIC ACID [2]: 1.83 mg/dL | ABSOLUTE BASOPHIL [3]: 0 CELLS/uL | ABSOLUTE EOSINOPHIL [3]: 240.67 CELLS/uL | ABSOLUTE LYMPHOCYTE [3]: 11319.33 CELLS/uL | ABSOLUTE MONOCYTE [3]: 32 CELLS/uL | ABSOLUTE SEGMENTED NEUTROPHIL [3]: 1141.33 CELLS/uL | BASOPHIL [3]: 0% | EOSINOPHIL [3]: 1.67% | ERYTHROCYTE COUNT [3]: 5.23 x10E6/uL | HEMATOCRIT [3]: 32.43% | HEMOGLOBIN [3]: 12.37 G/DL | LEUKOCYTE COUNT [3]: 12.73 x10E3/uL | LYMPHOCYTE [3]: 89% | MEAN CORPUSCULAR HEMOGLOBIN [3]: 23.63 pg | MEAN CORPUSCULAR HEMOGLOBIN CONCENTRATION [3]: 38.13 G/DL | MEAN CORPUSCULAR VOLUME [3]: 62 fL | MONOCYTE [3]: 0.33% | NEUTROPHIL [3]: 9% | NUCLEATED RED BLOOD CELLS [3]: 0 /100WBC | PLATELET COUNT [3]: 1264.33 x10E3/uL | ALANINE AMINOTRANSFERASE [3]: 43.67 u/L | ALBUMIN [3]: 4.1 G/DL | ALKALINE PHOSPHATASE [3]: 371.33 u/L | ASPARTATE AMINOTRANSFERASE [3]: 73.67 u/L | BLOOD UREA NITROGEN [3]: 14.33 mg/dL | CARBON DIOXIDE [3]: 25.67 mmol/L | CHLORIDE [3]: 102 MEQ/L | CHOLESTEROL [3]: 79.67 mg/dL | CREATINE PHOSPHOKINASE [3]: 319.67 u/L | CREATININE [3]: 0.15 mg/dL | GLUCOSE [3]: 144.67 mg/dL | LACTATE DEHYDROGENASE [3]: 139.33 u/L | LIPASE [3]: 8 u/L | PHOSPHORUS [3]: 12.8 mg/dL | POTASSIUM [3]: 6.81 MEQ/L | SODIUM [3]: 142.53 MEQ/L | TOTAL BILIRUBIN [3]: 0.2 mg/dL | TOTAL PROTEIN [3]: 5.67 G/DL | URIC ACID [3]: 1.47 mg/dL
